This note sets out measurements from PubChem BioAssay AID256 (DTP/NCI, 2004).

In this experiment the test system is CD2F1 mice, L1210 leukemia ip, survival T/C. Nature of the experiment: NCI In Vivo Anticancer Drug Screen. Data for tumor model L1210 Leukemia (intraperitoneal) in CD2F1 (CDF1) mice. The conditions noted are these: higher = longer survival. In short, it runs like this:
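Transplantable tumor in mice; compound-treated vs vehicle-treated groups. Read-out = treated/control ratio of the measured endpoint.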

The mark [1] stands for this setting: endpoint: mean survival time, dose: 6.25 mg/kg/injection, schedule: Q01DX005 (ip), vehicle: water.
The mark [2] stands for this setting: endpoint: mean survival time, dose: 12.5 mg/kg/injection, schedule: Q01DX005 (ip), vehicle: water.
[3] abbreviates: endpoint: mean survival time, dose: 100.0 mg/kg/injection, schedule: Q01DX001 (ip), vehicle: saline with Tween-80.
Where [4] appears, read: endpoint: mean survival time, dose: 200.0 mg/kg/injection, schedule: Q01DX001 (ip), vehicle: saline with Tween-80.
Setting [5] is: endpoint: mean survival time, dose: 400.0 mg/kg/injection, schedule: Q01DX001 (ip), vehicle: saline with Tween-80.
Where [6] appears, read: endpoint: mean survival time, dose: 100.0 mg/kg/injection, schedule: Q04DX003 (ip), vehicle: saline with Tween-80.
[7] abbreviates: endpoint: mean survival time, dose: 200.0 mg/kg/injection, schedule: Q04DX003 (ip), vehicle: saline with Tween-80.
Where [8] appears, read: endpoint: mean survival time, dose: 400.0 mg/kg/injection, schedule: Q04DX003 (ip), vehicle: saline with Tween-80.
Setting [9] is: endpoint: mean survival time, dose: 100.0 mg/kg/injection, schedule: Q01DX009 (ip), vehicle: saline with Tween-80.
Setting [10] is: endpoint: mean survival time, dose: 200.0 mg/kg/injection, schedule: Q01DX009 (ip), vehicle: saline with Tween-80.
Where [11] appears, read: endpoint: mean survival time, dose: 400.0 mg/kg/injection, schedule: Q01DX009 (ip), vehicle: saline with Tween-80.
Setting [12] is: endpoint: mean survival time, dose: 25.0 mg/kg/injection, schedule: Q04DX002 (ip), vehicle: saline with Tween-80.
Setting [13] is: endpoint: mean survival time, dose: 50.0 mg/kg/injection, schedule: Q04DX002 (ip), vehicle: saline with Tween-80.
[14] abbreviates: endpoint: mean survival time, dose: 50.0 mg/kg/injection, schedule: Q01DX009 (ip), vehicle: saline with Tween-80.

SMILES strings stand for the structures. Where “and” joins values, the source holds several entries; their conditions need not be identical. Equal values may be shown once. Toxic doses and inconclusive results are not listed.

On to `Nc1cc(=S)c2ncn(C3OC(CO)C(O)C3O)c2[nH]1` (centres undefined), for which the T/C is, setting by setting: under setting [1], 89 % of control; under setting [2], 101 % of control; (endpoint: mean survival time, dose: 25.0 mg/kg/injection, schedule: Q01DX005 (ip), vehicle: water) 89 % of control; (endpoint: mean survival time, dose: 50.0 mg/kg/injection, schedule: Q01DX005 (ip), vehicle: water) 96 % of control; under setting [3], 100 % of control; (endpoint: mean survival time, dose: 100.0 mg/kg/injection, schedule: Q01DX005 (ip), vehicle: water) 93 % of control. Also, the T/C reads like this: under setting [4], 91 % of control; under setting [5], 100 % of control.

With `O=Cc1ccccc1O.O=Cc1ccccc1O.O=Cc1ccccc1O.[La]`, the T/C under setting [6] is 89 % of control and the T/C under setting [7] was 98 % of control.

In the case of `CCOC1CS(=O)(=O)CC(OCC)O1` (centres undefined), the T/C is, setting by setting: under setting [6], 101 % of control; under setting [7], 109 % of control; under setting [8], 101 % of control.

Regarding `Cc1c([N+](=O)[O-])cc2c(c1[N+](=O)[O-])C(C)(C)CC2(C)C`, the T/C was 100 % of control under setting [9]; 96 % of control under setting [6]; 98 % of control under setting [10]; 105 % of control under setting [7]; 96 % of control under setting [11]; 94 % of control under setting [8].

In the case of `c1ccc(C2OCC3(CO2)COC(c2ccccc2)OC3)cc1` (centres undefined), the T/C is 88 % of control under setting [9]; 94 % of control under setting [6]; 91 % of control under setting [10]; 92 % of control under setting [7]; 92 % of control under setting [8].

Regarding `c1ccc(CNc2nnnn2C2CCCCC2)cc1`, the T/C reads like this: under setting [12], 95 % of control; under setting [13], 91 % of control; (endpoint: mean survival time, dose: 100.0 mg/kg/injection, schedule: Q04DX002 (ip), vehicle: saline with Tween-80) 102 % of control.

On to `Nc1cc2nc3ccccc3sc-2cc1=O`, for which the T/C under setting [14] is 102 % of control, the T/C under setting [9] was 102 % of control, the T/C under setting [10] is 102 % of control and the T/C under setting [11] is 89 % of control.

On to `C1CCC2C3CCC(O3)C2C1` (centres undefined), for which the T/C reads like this: (endpoint: mean survival time, dose: 100.0 mg/kg/injection, schedule: Q04DX003 (ip), vehicle: saline sonified) 96 % of control; (endpoint: mean survival time, dose: 200.0 mg/kg/injection, schedule: Q04DX003 (ip), vehicle: saline sonified) 96 % of control; (endpoint: mean survival time, dose: 400.0 mg/kg/injection, schedule: Q04DX003 (ip), vehicle: saline sonified) 92 % of control.

Take `O=P1(C(Cl)Cl)OCCCCO1`: the T/C by setting is: (endpoint: mean survival time, dose: 100.0 mg/kg/injection, schedule: Q01DX001 (ip), vehicle: saline) 102 % of control; (endpoint: mean survival time, dose: 200.0 mg/kg/injection, schedule: Q01DX001 (ip), vehicle: saline) 102 % of control; (endpoint: mean survival time, dose: 400.0 mg/kg/injection, schedule: Q01DX001 (ip), vehicle: saline) 105 % of control.

For the compound `c1cc(-c2ncc[nH]2)ccn1`, the T/C by setting is: (endpoint: mean survival time, dose: 25.0 mg/kg/injection, schedule: Q01DX001 (ip), vehicle: saline with Tween-80) 112 % of control; (endpoint: mean survival time, dose: 50.0 mg/kg/injection, schedule: Q01DX001 (ip), vehicle: saline with Tween-80) 96 % of control; under setting [3], 104 % of control.

As to `CCN(CC)CCN1CC2C3C=CC(C3)C2C1` (centres undefined), the T/C (endpoint: mean survival time, dose: 25.0 mg/kg/injection, schedule: Q01DX009 (ip), vehicle: saline with Tween-80) is 97 % of control; the T/C under setting [14] was 100 % of control; the T/C under setting [9] is 102 % of control and 104 % of control.

In the case of `CNC(=O)Nc1ccc(C(=O)NC(C)C)cc1`, the T/C is, setting by setting: (endpoint: mean survival time, dose: 22.0 mg/kg/injection, schedule: Q01DX009 (ip), vehicle: other) 93 % of control; (endpoint: mean survival time, dose: 33.0 mg/kg/injection, schedule: Q01DX009 (ip), vehicle: other) 102 % of control; (endpoint: mean survival time, dose: 50.0 mg/kg/injection, schedule: Q01DX009 (ip), vehicle: other) 94 % of control; (endpoint: mean survival time, dose: 100.0 mg/kg/injection, schedule: Q01DX009 (ip), vehicle: other) 95 % of control; (endpoint: mean survival time, dose: 200.0 mg/kg/injection, schedule: Q01DX009 (ip), vehicle: other) 91 % of control; (endpoint: mean survival time, dose: 400.0 mg/kg/injection, schedule: Q01DX009 (ip), vehicle: other) 96 % of control. Besides, the T/C (endpoint: mean survival time, dose: 800.0 mg/kg/injection, schedule: Q01DX009 (ip), vehicle: other) is 100 % of control.

With `COC(=O)c1cc(Cl)cc(C(=O)OC)c1`, the T/C by setting is: under setting [9], 95 % of control; under setting [10], 88 % of control.

With `CCNC(=S)N(Cc1ccccc1)Cc1ccccc1`, the T/C is 103 % of control (endpoint: mean survival time, dose: 50.0 mg/kg/injection, schedule: Q04DX003 (ip), vehicle: saline with Tween-80); 89 % of control and 98 % of control under setting [6]; 100 % of control under setting [7]; 87 % of control under setting [8].

In the case of `Nc1ncnc2nc(SCc3cccc([N+](=O)[O-])c3)[nH]c12`, the T/C under setting [3] was 96 % of control, the T/C under setting [4] was 90 % of control and the T/C under setting [5] is 90 % of control.

Regarding `O=C(N=C1OC2C(OC(=O)c3ccccc3)C(COC(=O)c3ccccc3)OC2N1C(=O)c1ccccc1)c1ccccc1` (centres undefined), the T/C was 100 % of control (endpoint: mean survival time, dose: 100.0 mg/kg/injection, schedule: Q01DX009 (ip), vehicle: saline); 100 % of control (endpoint: mean survival time, dose: 200.0 mg/kg/injection, schedule: Q01DX009 (ip), vehicle: saline); 87 % of control (endpoint: median survival time, dose: 100.0 mg/kg/injection, schedule: Q04DX003 (ip), vehicle: saline sonified); 100 % of control (endpoint: median survival time, dose: 200.0 mg/kg/injection, schedule: Q04DX003 (ip), vehicle: saline sonified); 100 % of control (endpoint: median survival time, dose: 400.0 mg/kg/injection, schedule: Q04DX003 (ip), vehicle: saline sonified).

On to `CCC(C(=N)C#N)[N+](=O)[O-]` (centres undefined), for which the T/C is, setting by setting: (endpoint: mean survival time, dose: 100.0 mg/kg/injection, schedule: Q04DX002 (ip), vehicle: saline) 91 % of control; (endpoint: mean survival time, dose: 200.0 mg/kg/injection, schedule: Q04DX002 (ip), vehicle: saline) 95 % of control; (endpoint: mean survival time, dose: 400.0 mg/kg/injection, schedule: Q04DX002 (ip), vehicle: saline) 91 % of control.

For the compound `COc1ccc(C(C#N)=C2C=CC(=NO)C=C2)cc1`, the T/C under setting [6] is 98 % of control, the T/C under setting [7] was 95 % of control and the T/C under setting [8] was 101 % of control.

Take `CCCCOC(=O)C1C2CCC(O2)C1C(N)=O` (centres undefined): the T/C by setting is: under setting [12], 95 % of control; under setting [13], 101 % of control.

As to `O=C1N(CC2CO2)CCN1CC1CO1` (centres undefined), the T/C is 123 % of control (endpoint: median survival time, dose: 12.5 mg/kg/injection, schedule: Q01DX009 (ip), vehicle: saline); 157 % of control (endpoint: median survival time, dose: 50.0 mg/kg/injection, schedule: Q01DX009 (ip), vehicle: saline); 174 % of control (endpoint: median survival time, dose: 100.0 mg/kg/injection, schedule: Q01DX009 (ip), vehicle: saline); 277 % of control (endpoint: median survival time, dose: 200.0 mg/kg/injection, schedule: Q01DX009 (ip), vehicle: saline); 86 % of control (endpoint: median survival time, dose: 400.0 mg/kg/injection, schedule: Q01DX009 (ip), vehicle: saline).

As for `c1ccc(N=NC2(c3ccccc3)CC(c3ccccc3)=NN(c3ccccc3)C2NNc2ccccc2)cc1` (centres undefined), the T/C is 96 % of control under setting [3], 102 % of control under setting [4] and 96 % of control under setting [5].

Consider `C=CCS(=O)(=O)Cc1cccc([N+](=O)[O-])c1`, for which the T/C was 103 % of control (endpoint: mean survival time, dose: 100.0 mg/kg/injection, schedule: Q04DX002 (ip), vehicle: Klucel (hydroxypropylcellulose) (HPC)); 94 % of control (endpoint: mean survival time, dose: 200.0 mg/kg/injection, schedule: Q04DX002 (ip), vehicle: Klucel (hydroxypropylcellulose) (HPC)); 90 % of control (endpoint: mean survival time, dose: 400.0 mg/kg/injection, schedule: Q04DX002 (ip), vehicle: Klucel (hydroxypropylcellulose) (HPC)).

Turning to `COc1cc2c(c(OC)c1OC)-c1ccc(SC)c(=O)cc1[C@@H](NC(=O)NCCCl)CC2`, the T/C (endpoint: mean survival time, dose: 1.56 mg/kg/injection, schedule: Q01DX005 (ip), vehicle: water) was 103 % of control; the T/C (endpoint: mean survival time, dose: 3.13 mg/kg/injection, schedule: Q01DX005 (ip), vehicle: water) was 103 % of control; the T/C under setting [1] was 122 % of control; the T/C (endpoint: mean survival time, dose: 6.25 mg/kg/injection, schedule: Q01DX009 (ip), vehicle: water) is 123 % of control; the T/C under setting [2] is 117 % of control; the T/C (endpoint: mean survival time, dose: 12.5 mg/kg/injection, schedule: Q01DX009 (ip), vehicle: water) is 123 % of control.
